# Experimental data reported in patent publication US4341786A, “Pharmaceutical compositions and method of producing central alpha1 agonist activity utilizing octahydrobenzo[f]quinoline compounds” (SmithKline Corporation, priority 1981, dated 1982).
# Counter-ions that a name gives are not always drawn.
# Target: postjunctional alpha1 receptors
# Test: postjunctional alpha1 agonist activity (EC50), isolated segment of rabbit ear artery
# Details: smooth muscle tension, dose producing 50% of the maximum response (norepinephrine)
# Description: The assay procedure is described by Steinsland et al. J. Pharm. Exp. Ther. 184:346-356, 1973. Briefly, this test comprises sacrificing a white rabbit and removing the central ear artery. The artery is cannulated at both ends and placed in a perfusion chamber. The artery is simultaneously perfused intraluminally and superfused extraluminally with Krebs solution. The compound to be tested can be administered by means of either the intraluminal or extraluminal flow. The sympathetic nerve is excited at four minute intervals by field stimulation. The selective alpha1 agonist activity is measured as the ability to increase perfusion pressure (mm Hg.) without inhibiting response to sympathetic nerve stimulation.
# A quantitation of postjunctional alpha1 agonist activity (EC50) is determined for compounds showing activity in the above test. This is accomplished by employing an isolated segment of rabbit ear artery. The segment is mounted in a chamber superfused with oxygenated Krebs solution. The segment is suspended between two tungsten wires, one attached to the chamber, the other to a force-displacement transducer so that smooth muscle tension can be measured directly. Before administration of the test drug, norepinephrine is administered in increasing concentration (10^-8 M to 3×10^-6 M) to determine maximum response of the artery. […]
smiles,measurement,value
"COc1ccc(OC)c2c1CCC1NCCCC21 (stereo not shown) [7,10-dimethoxy-1,2,3,4,4a,5,6,10-b-octahydro-benzo[f]quinoline hydrochloride]",EC50,190 nM
